Assay results taken from ChEMBL document CHEMBL3853302, “Anti-inflammatory and Quinone Reductase Inducing Compounds from Fermented Noni (Morinda citrifolia) Juice Exudates” (J Nat Prod, 2016).
Calls of active or inactive are those of the source. No cut-off for these calls is given here.

Key:
[1] = Induction of quinone reductase-1 in mouse Hepa-1c1c7 cells assessed as reduction of 3-(4,5-dimethylthiazol-2-yl)-2,5-diphenyltetrazolium bromide at 50 uM after 48 hrs by crystal violet staining-based assay relative to control
HEK293 = assay: Inhibition of TNF-alpha-activated NFkappaB (unknown origin) expressed in HEK293 cells at 50 uM after 6 hrs by luciferase reporter gene assay relative to control; assay type: cell-based; conditions: Homo sapiens
[2] = Toxicity in HEK293 cells assessed as decrease in cell survival at 50 uM; assay type: cell-based; conditions: human, hek293, 50 µM
[3] = Inhibition of TNF-alpha-activated NFkappaB (unknown origin) transfected in HEK293 cells after 6 hrs by luciferase reporter gene assay; assay type: cell-based; conditions: Homo sapiens, HEK293, 6 h

| SMILES | fold change (FC) [1] | inhibition (HEK293) | Activity [2] | other results |
| --- | --- | --- | --- | --- |
| CCCCO[C@H]1C=C(CO)[C@H]2[C@H](O[C@@H]3O[C@H](CO)[C@@H](O)[C@H](O)[C@H]3O)OC=C(C(=O)O)[C@H]21 | 2.3 | – | – | – |
| COc1cc2oc(=O)ccc2cc1O[C@@H]1O[C@H](CO)[C@@H](O)[C@H](O)[C@H]1O | – | – | – | Activity [1]: Active |
| C[C@@H]1O[C@@H](OC[C@H]2O[C@@H](Oc3c(-c4ccc(O)cc4)oc4cc(O)cc(O)c4c3=O)[C@H](O)[C@@H](O)[C@@H]2O)[C@H](O)[C@H](O)[C@H]1O [NICOTIFLOROSIDE] | – | 62% | Non-Toxic | – |
| O=C1O[C@@H]2[C@@H](O)CO[C@]2(O)[C@@]1(O)C/C=C/c1ccc(O)c(O)c1 | – | 70% | Non-Toxic | – |
| Cc1ccc(S(=O)(=O)N[C@@H](Cc2ccccc2)C(=O)CCl)cc1 [TPCK] | – | – | – | IC50 [3]: 3.8 µM |
| COC(=O)C1=CO[C@@H](O[C@@H]2O[C@H](CO)[C@@H](O)[C@H](O)[C@H]2O)[C@@H]2C(CO)=C[C@@H](O)[C@H]12 | 2.5 | – | – | – |
